Patent US20220235064A1 (WELLMARKER BIO CO., LTD., priority 2019, published 2022)

How the values were obtained:
[1] = system: cancer cell line KM12C, in which RON is activated; assay: Cell growth inhibitory ability in RON-activated cancer cell line (MTS); type: cell-based; conditions: Homo sapiens, 48 hours, absorbance 490 nm
Description: Experimental Example 2: Identification of Cell Growth Inhibitory Ability of Example Compounds in RON-Activated Cancer Cell Line
The cancer cell line KM12C (80015, KCLB, MEM+1K° FBS), in which RON is activated, was treated with each of the example compounds at a concentration of 10 μM, and then reaction was allowed to proceed for 48 hours. 24 hours after completion of the reaction, 20 μl of MTS solution (CellTiter 96 Aqueous One Solution Cell Proliferation Assay, product number: G3581, Promega) was added to each well, and then incubation was performed at a temperature of 37° C. in 50 CO2 incubator for 4 hours. Then, an IC50 value of the compound was derived by measuring its absorbance value at a wavelength of 490 nm using a Victor X5 plate reader. Here, as a positive control, N-(4-(2-amino-3-chloropyridin-4-yloxy)-3-fluorophenyl)-4-ethoxy-1-(4-fluorophenyl)-2-oxo-1,2-dihydropyridine-3-carboxamide, which is the compound of Example 1 in WO 2008/058229 A1, was used.

[2] = system: cancer cell line KM12C, in which RON is activated; assay: Cell-killing efficacy in RON-activated cancer cell line (trypan blue); type: cell-based; conditions: Homo sapiens, 48 hours, trypan blue, n=2, read-out: Cell death (%) Cancer cell line KM12C
Description: Experimental Example 3: Measurement of Cell-Killing Efficacy of Example Compounds in RON-Activated Cancer Cell Line
The cancer cell line KM12C (80015, KCLB, MEM+10% FBS), in which RON is activated, was dispensed into each 60 mm^2 dish at 1×10^5 cells. After 24 hours, the dish was treated with each of the example compounds at a concentration of 1 μM or 5 μM while performing medium exchange, and then reaction was allowed to proceed for 48 hours. After 48 hours, centrifugation was performed for 4 minutes at 1,500 rpm to collect cells and cell fluid. Thereafter, living cells and dead cells were quantified (n=2) using a trypan blue solution (15250-061, Gibco), and statistical analysis was performed using Excel-T-test. Here, as a negative control, only a solvent (0.100 DMSO) was used; and as a positive control, N-(4-(2-amino-3-chloropyridin-4-yloxy)-3-fluorophenyl)-4-ethoxy-1-(4-fluorophenyl)-2-oxo-1,2-dihydropyridine-3-carboxamide, which is the compound of Example 1 in WO 2008/058229 A1, was used.

RON tyrosine kinase = target: T1, RON tyrosine kinase (Homo sapiens, UniProt Q04912); assay: Enzyme inhibitory activity against RON tyrosine kinase (TR-FRET); type: biochemical; conditions: RON (Carna Bioscience)
T1 construct: purchased Carna Bioscience
T1 sequence (Q04912 25-1400): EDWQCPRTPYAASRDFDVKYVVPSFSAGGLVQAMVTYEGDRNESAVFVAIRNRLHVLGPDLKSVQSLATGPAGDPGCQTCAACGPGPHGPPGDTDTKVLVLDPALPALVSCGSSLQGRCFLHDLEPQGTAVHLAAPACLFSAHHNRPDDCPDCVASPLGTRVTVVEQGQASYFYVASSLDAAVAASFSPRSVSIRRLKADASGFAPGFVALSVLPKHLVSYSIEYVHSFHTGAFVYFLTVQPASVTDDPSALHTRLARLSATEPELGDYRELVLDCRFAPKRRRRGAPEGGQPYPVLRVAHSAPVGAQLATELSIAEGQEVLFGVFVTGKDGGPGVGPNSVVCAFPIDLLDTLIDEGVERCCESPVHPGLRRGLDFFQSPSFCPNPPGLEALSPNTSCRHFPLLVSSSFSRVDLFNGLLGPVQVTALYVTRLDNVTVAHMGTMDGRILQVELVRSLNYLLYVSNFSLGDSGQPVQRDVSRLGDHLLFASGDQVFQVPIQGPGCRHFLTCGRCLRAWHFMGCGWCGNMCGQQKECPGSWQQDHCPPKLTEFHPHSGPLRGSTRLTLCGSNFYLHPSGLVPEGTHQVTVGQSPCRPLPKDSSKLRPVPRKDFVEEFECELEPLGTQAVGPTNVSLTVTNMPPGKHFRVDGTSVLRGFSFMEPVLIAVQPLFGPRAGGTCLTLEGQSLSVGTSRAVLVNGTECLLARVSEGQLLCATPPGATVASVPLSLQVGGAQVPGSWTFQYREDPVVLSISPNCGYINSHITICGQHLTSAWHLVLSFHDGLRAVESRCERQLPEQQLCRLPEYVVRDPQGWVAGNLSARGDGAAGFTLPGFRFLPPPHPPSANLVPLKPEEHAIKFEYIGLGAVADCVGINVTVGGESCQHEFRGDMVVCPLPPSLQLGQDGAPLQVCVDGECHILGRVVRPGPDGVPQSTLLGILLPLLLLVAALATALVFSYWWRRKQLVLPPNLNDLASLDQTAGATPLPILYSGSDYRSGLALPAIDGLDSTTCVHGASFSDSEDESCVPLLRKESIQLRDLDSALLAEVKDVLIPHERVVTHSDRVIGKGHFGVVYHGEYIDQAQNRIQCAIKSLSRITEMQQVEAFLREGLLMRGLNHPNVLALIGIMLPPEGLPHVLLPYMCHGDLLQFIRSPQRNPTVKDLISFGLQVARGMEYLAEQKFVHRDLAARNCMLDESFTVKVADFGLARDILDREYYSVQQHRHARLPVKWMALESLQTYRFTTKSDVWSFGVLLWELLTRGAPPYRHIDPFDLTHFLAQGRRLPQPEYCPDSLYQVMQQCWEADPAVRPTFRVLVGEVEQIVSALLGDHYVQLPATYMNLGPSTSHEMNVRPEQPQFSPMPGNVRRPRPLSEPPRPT
Description: Experimental Example 1: Measurement of Enzyme Inhibitory Activity Against RON Tyrosine Kinase
To measure enzyme inhibitory activity of the example compounds against RON, IC50 values of the compounds were measured using fluorescence resonance energy transfer (FRET).
Specifically, first, RON (Carna Bioscience) was diluted in a kinase assay buffer (50 mM HEPES pH 7.5, 1 mM EGTA, 10 mM MgCl2, 2 mM DTT, and 0.01% Tween-20) to be at a concentration (0.4 nM) that is twice the final reaction concentration. The dilute was added to a 384-well-plate at 5 μl per well. Each of the example compounds was prepared at a concentration of 1 mM in 100% DMSO and diluted 8 times in a stepwise manner through 10-fold dilution. Each compound was diluted in a kinase assay buffer to be at a concentration that is 4 times the final reaction concentration. The dilute was added to a 384-well-plate at 2.5 μl per well, and incubation was performed at room temperature for 15 minutes.
Thereafter, an ATP solution (Sigma Aldrich) prepared at a concentration of 0.25 M was diluted in a kinase assay buffer to be at a concentration (60 μM) that is 4 times the final reaction concentration. Dilution of a tyrosine peptide substrate (Perkin-Elmer) was performed therein to be at a concentration (400 nM) that is 4 times the final reaction concentration. The dilute was added to a 384-well-plate at 2.5 µl per well. Reaction was allowed to proceed for 60 minutes by incubating the 384-well-plate at room temperature. Thereafter, EDTA (Sigma Aldrich) was diluted in a TR-FRET detection buffer (Perkin-Elmer) to be at a concentration (20 mM) that is twice the final reaction concentration. Dilution of a Europium-containing phosphotyrosine antibody (Perkin-Elmer) was performed in the diluted EDTA solution to be at a concentration (4 nM) that is twice the final reaction concentration, so that a stop solution for RON reaction was prepared.
The stop solution was added to the 384-well-plate at 10 μl per well to quench the reaction, and incubation was performed at room temperature for 60 minutes. Then, the 384-well-plate was read on a Victor X5 (Perkin-Elmer) plate reader. Here, the excitation wavelength was 340 nm, and the emission wavelengths were 620 nm and 665 nm. An IC50 value of the compound was derived using GraphPad Prism 5 program, in which the IC50 was derived by expressing emission energy at the wavelength of 665 nm as a function of the compound concentration.

Row | SMILES | IC50 [1] | cytotoxicity at 1 µM [2] | cytotoxicity at 5 µM [2] | IC50 (RON tyrosine kinase)
1 | CC1CCN(Cc2ccc(-c3cc4nccc(Oc5ccc(NC(=O)c6c7c(cn(-c8ccc(F)cc8)c6=O)CCO7)cc5F)c4s3)nc2)CC1 [Example 36, N-(3-Fluoro-4-((2-(5-((4-methylpiperidin-1-yl)methyl)pyridin-2-yl)thieno[3,2-b]pyridin-7-yl)oxy)phenyl)-5-(4-fluorophenyl)-6-oxo-2,3,5,6-tetrahydrofuro[3,2-c]pyridine-7-carboxamide] | 5 nM | 17.1% | 30% | –
2 | O=C(Nc1ccc(Oc2ccnc3cc(-c4ccc(CN5CCC(F)(F)C5)cn4)sc23)c(F)c1)c1c2c(cn(-c3ccc(F)cc3)c1=O)CCO2 [Example 28, N-(4-((2-(5-((3,3-Difluoropyrrolidin-1-yl)methyl)pyridin-2-yl)thieno[3,2-b]pyridine-7-yl)oxy)-3-fluorophenyl)-5-(4-fluorophenyl)-6-oxo-2,3,5,6-tetrahydrofuro[3,2-c]pyridine-7-carboxamide] | 3 nM | 9.6% | 10.3% | –
3 | N#CC1CN(Cc2ccc(-c3cc4nccc(Oc5ccc(NC(=O)c6c7c(cn(-c8ccc(F)cc8)c6=O)CCO7)cc5F)c4s3)nc2)C1 [Example 19, N-(4-((2-(5-((3-Cyanoazetidin-1-yl)methyl)pyridin-2-yl)thieno[3,2-b]pyridin-7-yl)oxy)-3-fluorophenyl)-5-(4-fluorophenyl)-6-oxo-2,3,5,6-tetrahydrofuro[3,2-c]pyridine-7-carboxamide] | 1 nM | 15.7% | 21.9% | –
4 | COc1ccc2nccc(Oc3ccc(NC(=O)c4c5c(cn(-c6ccc(F)cc6)c4=O)CCO5)cc3F)c2c1 [Example 44, N-(3-Fluoro-4-((6-methoxyquinolin-4-yl)oxy)phenyl)-5-(4-fluorophenyl)-6-oxo-2,3,5,6-tetrahydrofuro[3,2-c]pyridine-7-carboxamide] | – | 16% | 21.4% | 1.87 nM
5 | O=C(Nc1ccc(Oc2ccnc3cc(-c4ccc(CN5CCCC(O)C5)cn4)sc23)c(F)c1)c1c2c(cn(-c3ccc(F)cc3)c1=O)CCO2 (stereo not drawn) [Example 30, N-(3-Fluoro-4-((2-(5-((3-hydroxypiperidin-1-yl)methyl)pyridin-2-yl)thieno[3,2-b]pyridin-7-yl)oxy)phenyl)-5-(4-fluorophenyl)-6-oxo-2,3,5,6-tetrahydrofuro[3,2-c]pyridine-7-carboxamide] | 1 nM | 24.8% | 25.9% | –
6 | CC1CCN(CCCOc2ccc3c(Oc4ccc(NC(=O)c5c6c(cn(-c7ccc(F)cc7)c5=O)CCO6)cc4F)ccnc3c2)CC1 [Example 162] | – | 16.4% | 22.6% | 1.18 nM
7 | CC1(O)CCN(Cc2ccc(-c3cc4nccc(Oc5ccc(NC(=O)c6c7c(cn(-c8ccc(F)cc8)c6=O)CCO7)cc5F)c4s3)nc2)C1 (stereo not drawn) [Example 24, N-(3-Fluoro-4-((2-(5-((3-hydroxy-3-methylpyrrolidin-1-yl)methyl)pyridin-2-yl)thieno[3,2-b]pyridin-7-yl)oxy)phenyl)-5-(4-fluorophenyl)-6-oxo-2,3,5,6-tetrahydrofuro[3,2-c]pyridine-7-carboxamide] | 1 nM | 18.6% | 16.9% | –
8 | O=C(Nc1ccc(Oc2ccnc3cc(-c4ccc(CN5CCC(O)CC5)cn4)sc23)c(F)c1)c1c2c(cn(-c3ccc(F)cc3)c1=O)CCO2 [Example 29, N-(3-Fluoro-4-((2-(5-((4-hydroxypiperidin-1-yl)methyl)pyridin-2-yl)thieno[3,2-b]pyridin-7-yl)oxy)phenyl)-5-(4-fluorophenyl)-6-oxo-2,3,5,6-tetrahydrofuro[3,2-c]pyridine-7-carboxamide] | 1 nM | 22.6% | 24.5% | –
9 | O=C(Nc1ccc(Oc2ccnc3cc(-c4ccc(CN5CC(F)(F)C5)cn4)sc23)c(F)c1)c1c2c(cn(-c3ccc(F)cc3)c1=O)CCO2 [Example 18, N-(4-((2-(5-((3,3-Difluoroazetidin-1-yl)methyl)pyridin-2-yl)thieno[3,2-b]pyridine-7-yl)oxy)-3-fluorophenyl)-5-(4-fluorophenyl)-6-oxo-2,3,5,6-tetrahydrofuro[3,2-c]pyridine-7-carboxamide] | 3 nM | 10.9% | 11.3% | –
10 | COC1(C)CN(Cc2ccc(-c3cc4nccc(Oc5ccc(NC(=O)c6c7c(cn(-c8ccc(F)cc8)c6=O)CCO7)cc5F)c4s3)nc2)C1 [Example 16, N-(3-Fluoro-4-((2-(5-((3-methoxy-3-methylazetidin-1-yl)methyl)pyridin-2-yl)thieno[3,2-b]pyridin-7-yl)oxy)phenyl)-5-(4-fluorophenyl)-6-oxo-2,3,5,6-tetrahydrofuro[3,2-c]pyridine-7-carboxamide] | 1 nM | 20.4% | 24.2% | –
11 | O=C(Nc1ccc(Oc2ccnc3cc(-c4ccc(CN5CCC(F)C5)cn4)sc23)c(F)c1)c1c2c(cn(-c3ccc(F)cc3)c1=O)CCO2 (stereo not drawn) [Example 27, N-(3-Fluoro-4-((2-(5-((3-fluoropyrrolidin-1-yl)methyl)pyridin-2-yl)thieno[3,2-b]pyridin-7-yl)oxy)phenyl)-5-(4-fluorophenyl)-6-oxo-2,3,5,6-tetrahydrofuro[3,2-c]pyridine-7-carboxamide] | 2 nM | 17.3% | 29% | –
12 | COc1ccc2c(Oc3ccc(NC(=O)c4c5c(cn(-c6ccc(F)cc6)c4=O)CCO5)cc3F)ccnc2c1 [Example 45, N-(3-Fluoro-4-((7-methoxyquinolin-4-yl)oxy)phenyl)-5-(4-fluorophenyl)-6-oxo-2,3,5,6-tetrahydrofuro[3,2-c]pyridine-7-carboxamide] | – | 16.3% | 18.9% | 1.5 nM
13 | COc1cc2nccc(Oc3ccc(NC(=O)c4c5c(cn(-c6ccc(F)cc6)c4=O)CCO5)cc3F)c2cc1C(=O)N(C)C [Example 49, N-(4-((6-(Dimethylcarbamoyl)-7-methoxyquinolin-4-yl)oxy)-3-fluorophenyl)-5-(4-fluorophenyl)-6-oxo-2,3,5,6-tetrahydrofuro[3,2-c]pyridine-7-carboxamide] | – | 9.98% | 11.2% | 2.98 nM
14 | Cn1cc(-c2cc3nccc(Oc4ccc(NC(=O)c5c6c(cn(-c7ccc(F)cc7)c5=O)CCO6)cc4F)c3s2)cn1 [Example 10, N-(3-Fluoro-4-((2-(1-methyl-1H-pyrazol-4-yl)thieno[3,2-b]pyridin-7-yl)oxy)phenyl)-5-(4-fluorophenyl)-6-oxo-2,3,5,6-tetrahydrofuro[3,2-c]pyridine-7-carboxamide] | – | 22% | 21.9% | 0.92 nM
